Here are results for one compound from patent publication US9185897B2, “Methods to deliver and maintain volatile compounds” (AUBURN UNIVERSITY, priority 2010, dated 2015).

The data set in a line: Release rate of a volatile compound from a model manually replenished system (mass loss of vials through a mass-regulating barrier). It is filed as physicochemical. The conditions noted are these: low-density polyethylene barrier, 0.004 inch-thick; air about 1.4 m/s; substantially constant over 133 days in the laboratory (FIG. 5). The protocol: Experimental release rates of a volatile compound from a model manually replenished system were measured as a function of time. Glass screw-thread sample vials with PTFE/silicone septa and open-top polypropylene caps contained the volatile liquid compound. Two different sizes of vials were employed: small 8 mL capacity (17 mm O.D. and 63 mm height) and large 40 mL capacity (28 mm O.D. and 98 mm height). The test volatile compound selected for study was dimethyldisulfide (DMDS). Duplicate samples of 5.5 mL and 30 mL of DMDS were added to the small and large vials, respectively. Then a mass-regulating barrier was placed on the top of each vial, and the open-top cap was tightly screwed to seal the vial contents. The diameters of the mass-regulating barriers for the small and large vials were 13.4 and 22.0 mm, respectively. In addition, the diameters of the openings in the caps for the small and large vials were 8.78 mm and 14.62 mm, respectively. Each vial with barrier, cap and liquid contents was then immediately weighed on an analytical balance. Next, the vials were placed in a dedicated laboratory fume hood. Ambient air with a bulk velocity of about 1.4 m/s (or 3 mph) passed over the vials. […] From these primary measurements the release rate for each […] was determined as a function of time. […]

On to `CSSC` [DMDS, dimethyldisulfide], for which the release rate is on record as 26 mg/day.
